The source of these data is US5455222A, “1-substituted-5-thiomethylthiocyanato-1H-tetrazoles, compositions containing them and their use as antimicrobial and marine antifouling agents” (The Dow Chemical Company, priority 1994, dated 1995).

The MIC is the smallest concentration in the dilution series that meets the test's criterion for growth inhibition. Read a high MIC as weaker potency.

In brackets after ≈: the same amount, converted by molar mass. Bounds are passed on as bounds.

For the first test, the system named is Trichoderma viride (Tv). Put plainly: Minimum inhibitory concentration (MIC), yeast/fungi in malt yeast agar. Particulars: 30° C., 72 hours for fungi. It counts as cell-based, Trichoderma viride ATCC 8678. Here is the method:
(§1) The minimum inhibitory concentration (MIC) for the compounds listed in Table I is determined for 9 bacteria, using nutrient agar, and 7 yeast and fungi, using malt yeast agar. A one percent solution of the test compound is prepared in a mixture of acetone and water.
(§2) Malt yeast agar is prepared by adding 3 g yeast extract and 45 g malt agar per liter of deionized water. The specific agar is dispensed in 30 mL aliquots into 25×200 mm test tubes, capped and autoclaved for 15 minutes at 115° C.
(§3) The test tubes containing the agar are cooled in a water bath until the temperature of the agar is 48° C. Then, an appropriate amount of the one percent solution of the test compound is added (except in the controls where no compound is added) to the respective test tubes so that the final concentrations are 500, 250, 100, 50, 25, 10, 5, 2.5, 1.0 and zero parts per million of the test compound in the agar, thus having a known concentration of test compound dispersed therein. The contents of the test tubes are then transferred to respective petri plates. After drying for 24 hours, the petri plates containing nutrient agar are inoculated with bacteria and those containing malt yeast agar are inoculated with yeast and fungi.
(§4) The inoculation with the yeast and fungi is accomplished as follows. Cultures of yeast and fungi are incubated for seven days on malt yeast agar at 30° C. These cultures are used to prepare suspensions by the following procedure. A suspension of each organism is prepared by adding 10 mL of sterile saline and 10 microliters of octylphenoxy polyethoxy ethanol to the agar slant of yeast or fungi. The sterile saline/octylphenoxy polyethoxy ethanol solution is then agitated with a sterile swab to suspend the microorganism grown on the slant. Each resulting suspension is diluted into sterile saline (1 part suspension to 9 parts sterile saline). Aliquots of these dilutions are placed in individual wells of Steer's Replicator and petri plates inoculated as previously described. The petri plates are incubated at 30° C. and read after 48 hours for yeast and 72 hours for fungi.
(§5) Table II lists the bacteria, yeast and fungi used in the MIC test described above along with their respective American Type Culture Collection (ATCC) identification numbers.
(§6) In Tables III and IV, the MIC values of the compounds described in Table I as compared to the MIC of a standard commercial preservative (with 1-(3-chloroallyl)-3,5,7-triaza-1-azoniaadamantane chloride as the active agent and referred to in Tables III and IV as "STANDARD I") are set forth for the bacteria organisms and yeast/fungi organisms which are listed in Table II.
`COc1ccc(-n2nnnc2SCSC#N)cc1` [VIII, 1-(4-Methoxyphenyl)-5-thiomethylthiocyanato-1 H-tetrazole] came in with an MIC of 25 µg/mL (≈ 89.5 µM).

For another test, the system named is Salmonella choleraesuis (Sc). As to the kind of experiment: Minimum inhibitory concentration (MIC), bacteria in nutrient agar. It counts as cell-based, Salmonella choleraesuis ATCC 10708. Particulars: Salmonella enterica, nutrient agar pH 6.8, 30° C., 48 hours. Here is the method:
as §1
(§7) Nutrient agar is prepared at pH 6.8, representing a neutral medium, and at pH 8.2, representing an alkaline medium. The nutrient agars are prepared by adding 23 g of nutrient agar to one liter of deionized water. In addition, the alkaline medium is prepared by adjusting a 0.04M solution of N-[tris-(hydroxymethyl)methyl]glycine buffered deionized water with concentrated sodium hydroxide to a pH of 8.5.
as §3
(§8) The inoculation with bacteria is accomplished by using the following procedure. Twenty-four hour-cultures of each of the bacteria are prepared by incubating the respective bacteria in tubes containing nutrient broth for 24 hours at 30° C. in a shaker. Dilutions of each of the 24 hour-cultures are made so that nine separate suspensions (one for each of the nine test bacteria) are made, each containing 10^8 colony forming units (CFU) per mL of suspension of a particular bacteria. Aliquots of 0.3 mL of each of the bacterial suspensions are used to fill the individual wells of Steer's Replicator. For each microbial suspension, 0.3 mL was used to fill three wells (i.e., three wells of 0.3 mL each) so that for the nine different bacteria, 27 wells are filled. The Steer's Replicator is then used to inoculate both the neutral and alkaline pH nutrient agar petri plates.
(§9) The inoculated petri plates are incubated at 30° C. for 48 hours and then read to determine if the test compound which is incorporated into the agar prevented growth of the respective bacteria.
as §5, §6
The compound `COc1ccc(-n2nnnc2SCSC#N)cc1` [VIII, 1-(4-Methoxyphenyl)-5-thiomethylthiocyanato-1 H-tetrazole] had an MIC of 250 µg/mL (≈ 895 µM).

The test is the same for the next values; noted with them: Salmonella enterica, nutrient agar pH 8.2, 30° C., 48 hours.
In the case of `COc1ccc(-n2nnnc2SCSC#N)cc1` [VIII, 1-(4-Methoxyphenyl)-5-thiomethylthiocyanato-1 H-tetrazole], the MIC is 500 µg/mL (≈ 1790 µM).

For the next test, the system named is Candida albicans (Ca). Put plainly: Minimum inhibitory concentration (MIC), yeast/fungi in malt yeast agar. Particulars: 30° C., 48 hours for yeast. The format is cell-based, Candida albicans ATCC 10231. How it is done: as §1, §2, §3, §4, §5, §6
As to `COc1ccc(-n2nnnc2SCSC#N)cc1` [VIII, 1-(4-Methoxyphenyl)-5-thiomethylthiocyanato-1 H-tetrazole], the MIC stood at 25 µg/mL (≈ 89.5 µM).

For another test, the system named is Escherichia coli (Ec). Put plainly: Minimum inhibitory concentration (MIC), bacteria in nutrient agar. It counts as cell-based, Escherichia coli ATCC 11229. Particulars: nutrient agar pH 6.8, 30° C., 48 hours. How it is done:
as §1, §7, §3, §8, §9, §5, §6
Consider `COc1ccc(-n2nnnc2SCSC#N)cc1` [VIII, 1-(4-Methoxyphenyl)-5-thiomethylthiocyanato-1 H-tetrazole], for which 100 µg/mL (≈ 358 µM) was the least that counted as inhibitory (MIC).

Still in this test, the particulars now being: nutrient agar pH 8.2, 30° C., 48 hours.
The compound `COc1ccc(-n2nnnc2SCSC#N)cc1` [VIII, 1-(4-Methoxyphenyl)-5-thiomethylthiocyanato-1 H-tetrazole] came in with a minimal inhibitory concentration (MIC) of 500 µg/mL (≈ 1790 µM).

Another test has as its system Enterobacter aerogenes (Ea). Described as above. It counts as cell-based, Enterobacter aerogenes ATCC 13048. Particulars: Klebsiella aerogenes; nutrient agar pH 6.8, 30° C., 48 hours. Here is the method: as §1, §7, §3, §8, §9, §5, §6
In the case of `COc1ccc(-n2nnnc2SCSC#N)cc1` [VIII, 1-(4-Methoxyphenyl)-5-thiomethylthiocyanato-1 H-tetrazole], the MIC came out at 250 µg/mL (≈ 895 µM).

The test is the same for the next values; noted with them: Klebsiella aerogenes; nutrient agar pH 8.2, 30° C., 48 hours.
`COc1ccc(-n2nnnc2SCSC#N)cc1` [VIII, 1-(4-Methoxyphenyl)-5-thiomethylthiocyanato-1 H-tetrazole] returned an MIC of 500 µg/mL (≈ 1790 µM).

A further test relates to Fusarium oxysporum (Fo). As to the kind of experiment: Minimum inhibitory concentration (MIC), yeast/fungi in malt yeast agar. Particulars: 30° C., 72 hours for fungi. It counts as cell-based, Fusarium oxysporum ATCC 48112. Here is the method:
as §1, §2, §3, §4, §5, §6
Regarding `COc1ccc(-n2nnnc2SCSC#N)cc1` [VIII, 1-(4-Methoxyphenyl)-5-thiomethylthiocyanato-1 H-tetrazole], the minimal inhibitory concentration (MIC) is below 10 µg/mL.

The next test deals with Aureobasidium pullulan (Ap). Described as above. It counts as cell-based, Aureobasidium pullulan ATCC 16622. Particulars: 30° C., read after 48 hours for yeast and 72 hours for fungi. Here is the method:
as §1, §2, §3, §4, §5, §6
`COc1ccc(-n2nnnc2SCSC#N)cc1` [VIII, 1-(4-Methoxyphenyl)-5-thiomethylthiocyanato-1 H-tetrazole] had an MIC below 10 µg/mL.

The next test deals with Staphylococcus aureus (Sa). As to the kind of experiment: Minimum inhibitory concentration (MIC), bacteria in nutrient agar. It counts as cell-based, Staphylococcus aureus ATCC 6538. Particulars: nutrient agar pH 6.8, 30° C., 48 hours. Here is the method:
as §1, §7, §3, §8, §9, §5, §6
As to `COc1ccc(-n2nnnc2SCSC#N)cc1` [VIII, 1-(4-Methoxyphenyl)-5-thiomethylthiocyanato-1 H-tetrazole], the minimal inhibitory concentration (MIC) is 25 µg/mL (≈ 89.5 µM).

Still in this test, the particulars now being: nutrient agar pH 8.2, 30° C., 48 hours.
For `COc1ccc(-n2nnnc2SCSC#N)cc1` [VIII, 1-(4-Methoxyphenyl)-5-thiomethylthiocyanato-1 H-tetrazole], the lowest concentration to inhibit growth (MIC) was 100 µg/mL (≈ 358 µM).

The next test relates to Proteus vulgaris (Pv). The test is described as above. The format is cell-based, Proteus vulgaris ATCC 881. Particulars: nutrient agar pH 6.8, 30° C., 48 hours. Here is the method: as §1, §7, §3, §8, §9, §5, §6
In turn, `COc1ccc(-n2nnnc2SCSC#N)cc1` [VIII, 1-(4-Methoxyphenyl)-5-thiomethylthiocyanato-1 H-tetrazole] returned an MIC of 250 µg/mL (≈ 895 µM).

The same test, now with this note: nutrient agar pH 8.2, 30° C., 48 hours.
Take `COc1ccc(-n2nnnc2SCSC#N)cc1` [VIII, 1-(4-Methoxyphenyl)-5-thiomethylthiocyanato-1 H-tetrazole]: the lowest concentration to inhibit growth (MIC) was 500 µg/mL (≈ 1790 µM).

The test system of another test is Pseudomonas aeruginosa (PRD-10). The test is described as above. Particulars: nutrient agar pH 6.8, 30° C., 48 hours. It counts as cell-based, Pseudomonas aeruginosa ATCC 15442. How it is done:
as §1, §7, §3, §8, §9, §5, §6
In turn, `COc1ccc(-n2nnnc2SCSC#N)cc1` [VIII, 1-(4-Methoxyphenyl)-5-thiomethylthiocyanato-1 H-tetrazole] returned an MIC of 100 µg/mL (≈ 358 µM).

Staying with this test, now noted: nutrient agar pH 8.2, 30° C., 48 hours.
Regarding `COc1ccc(-n2nnnc2SCSC#N)cc1` [VIII, 1-(4-Methoxyphenyl)-5-thiomethylthiocyanato-1 H-tetrazole], 500 µg/mL (≈ 1790 µM) was the least that counted as inhibitory (MIC).

For the next test, the system named is Penicillium chrysogenum (Pc). As to the kind of experiment: Minimum inhibitory concentration (MIC), yeast/fungi in malt yeast agar. Particulars: 30° C., 72 hours for fungi. The format is cell-based, Penicillium chrysogenum ATCC 9480. How it is done: as §1, §2, §3, §4, §5, §6
Consider `COc1ccc(-n2nnnc2SCSC#N)cc1` [VIII, 1-(4-Methoxyphenyl)-5-thiomethylthiocyanato-1 H-tetrazole], for which the minimal inhibitory concentration (MIC) is below 10 µg/mL.

A further test has as its system Bacillus subtilis (Bs). Put plainly: Minimum inhibitory concentration (MIC), bacteria in nutrient agar. The format is cell-based, Bacillus subtilis ATCC 8473. Particulars: nutrient agar pH 6.8, 30° C., 48 hours. How it is done: as §1, §7, §3, §8, §9, §5, §6
As for `COc1ccc(-n2nnnc2SCSC#N)cc1` [VIII, 1-(4-Methoxyphenyl)-5-thiomethylthiocyanato-1 H-tetrazole], the minimal inhibitory concentration (MIC) is below 10 µg/mL.

Staying with this test, now noted: nutrient agar pH 8.2, 30° C., 48 hours.
For `COc1ccc(-n2nnnc2SCSC#N)cc1` [VIII, 1-(4-Methoxyphenyl)-5-thiomethylthiocyanato-1 H-tetrazole], the minimal inhibitory concentration (MIC) turned out to be 25 µg/mL (≈ 89.5 µM).

A further test concerns Klebsiella pneumoniae (Kp). Described as above. It counts as cell-based, Klebsiella pneumoniae ATCC 8308. Particulars: nutrient agar pH 6.8, 30° C., 48 hours. Here is the method: as §1, §7, §3, §8, §9, §5, §6
With `COc1ccc(-n2nnnc2SCSC#N)cc1` [VIII, 1-(4-Methoxyphenyl)-5-thiomethylthiocyanato-1 H-tetrazole], the lowest concentration to inhibit growth (MIC) was 250 µg/mL (≈ 895 µM).

The test is the same for the next values; noted with them: nutrient agar pH 8.2, 30° C., 48 hours.
For `COc1ccc(-n2nnnc2SCSC#N)cc1` [VIII, 1-(4-Methoxyphenyl)-5-thiomethylthiocyanato-1 H-tetrazole], the MIC was 100 µg/mL (≈ 358 µM).

A further test relates to Pseudomonas aeruginosa (Pa). Described as above. The format is cell-based, Pseudomonas aeruginosa ATCC 10145. Particulars: nutrient agar pH 8.2, 30° C., 48 hours. Here is the method: as §1, §7, §3, §8, §9, §5, §6
In the case of `COc1ccc(-n2nnnc2SCSC#N)cc1` [VIII, 1-(4-Methoxyphenyl)-5-thiomethylthiocyanato-1 H-tetrazole], the minimum inhibitory concentration (MIC) is 100 µg/mL (≈ 358 µM).

The subject of a further test is Saccharomyces cerevisiae (Sc). Put plainly: Minimum inhibitory concentration (MIC), yeast/fungi in malt yeast agar. Particulars: 30° C., 48 hours for yeast. It counts as cell-based, Saccharomyces cerevisiae ATCC 4105. How it is done: as §1, §2, §3, §4, §5, §6
In turn, `COc1ccc(-n2nnnc2SCSC#N)cc1` [VIII, 1-(4-Methoxyphenyl)-5-thiomethylthiocyanato-1 H-tetrazole] returned an MIC below 10 µg/mL.

The next test relates to Aspergillus niger (An). Described as above. The format is cell-based, Aspergillus niger ATCC 16404. Particulars: 30° C., 72 hours for fungi. How it is done:
as §1, §2, §3, §4, §5, §6
As for `COc1ccc(-n2nnnc2SCSC#N)cc1` [VIII, 1-(4-Methoxyphenyl)-5-thiomethylthiocyanato-1 H-tetrazole], the minimum inhibitory concentration (MIC) was below 10 µg/mL.
